# Laboratory results published in patent US4666900A, “Anti-ulcer and anti-hypersecretion dibenzoimidazothiazepine derivatives, compositions, and method of use therefor” (John Wyeth & Brother Ltd., priority 1985, dated 1987).
# Like-named read-outs stand apart in the source and are kept apart here.
# System: rabbit isolated gastric glands
# Assay: Inhibition of secretagogue-stimulated C-aminopyrine uptake in rabbit isolated gastric glands (anti-secretory activity, H+/K+ ATPase)
# Assay type: cell-based
# Details: 10^-4 M test compound, % inhibition of maximum response to secretagogue; for inhibition at 100 µM: Oryctolagus cuniculus
# Protocol: Compounds of formula I were tested for anti-secretory activity by their ability to inhibit the effect of one or two secretagogues on isolated gastric glands.
# Potential inhibitors of the highly specific proton transporting enzyme H^+ /K^+ ATPase were evaluated by a technique involving the measurement of aminopyrine accumulation in rabbit isolated gastric glands. Aminopyrine accumulates in acid-secreting cells; therefore, uptake of aminopyrine is increased by secretagogues and an inhibitor of acid secretion will reduce the response to one or more secretagogues depending upon its site of action. Compounds which reduce the response to dibutyryl cyclic adenosine monophosphate (DBcAMP) stimulation are assumed to have an intracellular site of action, and those which reduce the response to both DBcAMP and high potassium ion concentration (K^+) are thought to have an intracellular site of action at the secretory surface of the parietal cell, involving the highly specific proton-transporting enzyme, H^+ /K^+ ATPase.
# The following procedure is used:
# Rabbit glands are isolated from gastric mucosa from the corpus region of the stomach by a method based on one described by Berglindh T., Obrink K. J., Acta Physiol. Scand. 96, 150-159 (1976). Measurement of aminopyrine uptake is carried out using a procedure based on the method described by Berglindh T., Hellander H. F., Obrink K. J. (ibid. 97 401-414, 1976).
# Compounds are tested at a concentration of 10^-4 M, for their ability to inhibit C-aminopyrine uptake in gastric glands, stimulated by DBcAMP and high K^+ respectively. Results are expressed as the % inhibition of the maximum response to the secretagogue induced by the test compound.
# [1] = DBcAMP-stimulated aminopyrine uptake, read-out: % Inhibition to stimulation by: DBcAMP
# [2] = high K+-stimulated aminopyrine uptake, read-out: % Inhibition to stimulation by: k+
% Inhibition to stimulation by: DBcAMP (DBcAMP-stimulated aminopyrine uptake),% Inhibition to stimulation by: k+ (high K+-stimulated aminopyrine uptake),Compound,inhibition at 100 µM [1],inhibition at 100 µM [2]
–,–,"c1ccc2c(c1)CSc1nc3ccccc3n1C2 [8,13-Dihydrodibenzo[d,h]imidazo[2,1-b][1,3]thiazepine]",32%,94%
ns,–,"Cc1cc2nc3n(c2cc1C)Cc1ccccc1CS3 [8,13-Dihydro-4,5-dimethyldibenzo[d,h]imidazo[2,1-b][1,3]thiazepine]",–,80%
–,ns,"[O-][S+]1Cc2ccccc2Cn2c1nc1ccccc12 (stereo not drawn) [8,13-Dihydrodibenz[d,h]imidazo[2,1-b][1,3]thiazepine-1-oxide]",31%,–
